Patent publication US20150164754A1, “ANTI-AGEING COMPOSITION CONTAINING DEHYDROGENATED ABIETIC ACID AS ACTIVE INGREDIENT” (AMOREPACIFIC CORPORATION, priority 2012, published 2015)

Experiments:
human normal fibroblasts [1] = assay: Effect on stimulation of collagen biosynthesis (PICP kit); type: cell-based; settings: 10 μM dehydrogenated abietic acid, 48 hours, supernatant, 50 μg/ml ascorbic acid added
Description: The effect of dehydrogenated abietic acid (purchased from Ramidus AB) of Formula 1 on the stimulation of collagen biosynthesis was measured. In order to examine the effect of dehydrogenated abietic acid on the stimulation of collagen biosynthesis, human normal fibroblasts were seeded into a 96-well microplate at a density of 1×10^4 cells/well, and incubated in DMEM (Dulbecco's Modified Eagle's Medium) medium in a CO2 incubator at 36.5° C. for 24 hours. After incubation, in Example 2, the medium was replaced with a serum-free medium containing 10 μM of dehydrogenated abietic acid, and then the cells were further incubated for 48 hours. In Comparative Example 2, cells not treated with dehydrogenated abietic acid were used. At 24 hours before completion of the incubation, 50 μg/ml of ascorbic acid was added to each well to stimulate collagen synthesis. After completion, each well was washed, and the medium was replaced with serum-free DMEM medium, after which the cells were further incubated for 24 hours. After incubation, the supernatant of each well was collected, and the amount of procollagen type-I C-peptide (PICP) in the supernatant was measured using a kit (Takara, Kyoto, Japan) to determine the amount of newly synthesized collagen. The amount of PICP that is the amount of collagen synthesized is expressed in units of ng/2×10^4 cells in Table 2 below.

human normal fibroblasts [2] = assay: Effect on fibroblast proliferation (MTT); type: cell-based; settings: 10 μM dehydrogenated abietic acid, 24 hours, relative to group not treated with sample
Description: The effect of dehydrogenated abietic acid (purchased from Ramidus AB) of Formula 1 on wrinkle reduction was measured. In order to examine the effect of dehydrogenated abietic acid on skin cell proliferation that reduces wrinkles, human normal fibroblasts were seeded into a 96-well microplate at a density of 1×10^4 cells/well, and incubated in DMEM (Dulbecco's Modified Eagle's Medium) medium in a CO2 incubator at 36.5° C. for 24 hours. After incubation, in Example 1, the medium was replaced with a serum-free medium containing 10 μM of dehydrogenated abietic acid, and then the cells were further incubated for 24 hours. In Comparative Example 1, cells not treated with dehydrogenated abietic acid were used. Then, 10 μl of (3-(4,5-dimethyl-thiazol-2-yl)2,5-diphenyl tetrazolium (MTT, 5 mg/ml) was added to each well, which was then allowed to stand for 4 hours, followed by removal of the medium. Then, 100 μl of dimethyl sulfoxide solution was added to each well, and the absorbance at 570 nm was measured with a microplate reader. Based on the absorbance measured as described above, the cell proliferation effect was calculated using the following equation. The results of the calculation are shown in Table 1 below. Cell proliferation effect (%)=(absorbance of group treated with sample/absorbance of group not treated with sample)×100 Equation 1

## CC(C)c1ccc2c(c1)CC[C@H]1[C@](C)(C(=O)O)CCC[C@]21C [Example 1, dehydrogenated abietic acid]
Human normal fibroblasts [1]
  Amount of collagen synthesized (procollagen type-I C-peptide, PICP): 220 ng/2 × 10^4
Human normal fibroblasts [2]
  Cell proliferation effect (%): 60.0%
